*1 amine or outer side, *2 acyl side, *3 side chain or, on linkers, in order; H or OH if unused. Where a SMILES comes first, the peptide text is derived from it. Side-chain parts run from the residue outwards. [ ]: non-standard residue; d: D form. The star is where a group is joined. C20 diacid = O=C(O)CCCCCCCCCCCCCCCCCCC(=O)*; C18 diacid = O=C(O)CCCCCCCCCCCCCCCCC(=O)*; γGlu = O=C(O)[C@H](CCC(=O)[*:2])N[*:1]; AEEA = NCCOCCOCC(=O)O; Aib = CC(C)(N)C(=O)O
Legend:
[1] = target: human GLP-1 receptor (hGLP-1R) (Homo sapiens, UniProt P43220); assay: cAMP HTRF assay, HEK-293 cell line over-expressing human GLP-1 receptor; type: cell-based; details: HEK-293, cAMP, 0% HSA
human GLP-1 receptor (hGLP-1R), sequence (P43220 24-463): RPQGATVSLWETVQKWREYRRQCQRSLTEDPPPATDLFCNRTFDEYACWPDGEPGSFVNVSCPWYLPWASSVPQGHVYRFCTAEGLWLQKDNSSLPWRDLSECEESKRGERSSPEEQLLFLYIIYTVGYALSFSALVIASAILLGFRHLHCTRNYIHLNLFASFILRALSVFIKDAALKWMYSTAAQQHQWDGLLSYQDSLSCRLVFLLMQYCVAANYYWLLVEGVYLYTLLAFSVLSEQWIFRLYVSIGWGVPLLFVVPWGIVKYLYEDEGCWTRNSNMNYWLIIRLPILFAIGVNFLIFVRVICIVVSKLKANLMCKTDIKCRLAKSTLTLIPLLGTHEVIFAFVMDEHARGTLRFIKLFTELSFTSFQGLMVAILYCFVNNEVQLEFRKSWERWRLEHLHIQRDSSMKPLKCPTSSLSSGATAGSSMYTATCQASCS
In short: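 Thawed HEK-293 cells over-expressing human GLP-1R (5000 cells/well) in HBSS/20 mM HEPES buffer, with 0.1% HSA where stated, incubated with compound for 30 min at room temperature. Generated cAMP quantified by HTRF.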

[2] = Chemical stability assessment (relative purity loss by UHPLC-UV); type: physicochemical; details: Chemical stability buffer system A: 20 mM phosphate buffer pH 7.4
Protocol: Purity of a peptide batch was determined through UHPLC/MS prior to chemical stability measurement. The target concentration was […] pure compound. Solutions from solid samples were prepared in the following buffer systems with a concentration of ˜300 μM compound based on the previously determined % purity:
Chemical stability buffer system A) 20 mM phosphate buffer pH 7.4,
Chemical stability buffer system B) 8 mM phosphate buffer pH 7.4, 14 mg/ml propylene glycol, 5.5 mg/ml phenol
Chemical stability buffer system C) 100 mM phosphate buffer pH 7.4, 2.7 mg/ml m-cresol
Prepared solutions were filtered through […] pore size and filled into sterilized glass containers under laminar flow conditions.
Glass containers were stored for 28 days at 5 and 40° C. After this time, the samples were centrifuged for 15 min at 2500 RCF. Then 1.5 μl of the undiluted supernatant were analysed with UHPLC-UV.
The chemical stability was rated through the relative loss of purity calculated by the equation:
[(purity after 28 days at 5° C.)−(purity after 28 days at 40° C.)]/(purity after 28 days at 5° C.)]*100%
The purity is calculated as
[(peak area peptide)/(total peak area)]*100%
The analytical methods used were Analytical UHPLC Method B or C.
Peptide samples were prepared in Chemical stability buffer system A or B and stability was assessed as described in Methods.

[3] = target: T1, human GIP receptor (hGIPR) (Homo sapiens, UniProt P48546); assay: Binding assay, displacement of [125I]GIP from HEK-293 membranes expressing GIPR; details: [125I]GIP displacement
T1 sequence (P48546 22-466): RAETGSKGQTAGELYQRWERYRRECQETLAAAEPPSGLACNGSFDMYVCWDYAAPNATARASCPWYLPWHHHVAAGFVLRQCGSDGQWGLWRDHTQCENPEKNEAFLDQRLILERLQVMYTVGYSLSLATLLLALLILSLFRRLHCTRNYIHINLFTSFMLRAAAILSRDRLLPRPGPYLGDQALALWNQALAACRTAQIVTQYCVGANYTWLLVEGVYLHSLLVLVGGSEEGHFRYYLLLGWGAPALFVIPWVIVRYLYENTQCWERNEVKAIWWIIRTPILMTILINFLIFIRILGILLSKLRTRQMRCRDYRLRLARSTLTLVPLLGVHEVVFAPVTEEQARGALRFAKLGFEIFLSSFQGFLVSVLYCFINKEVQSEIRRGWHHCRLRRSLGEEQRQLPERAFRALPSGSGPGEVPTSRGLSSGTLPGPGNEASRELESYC
Protocol: HEK-293 cells recombinantly over-expressing GIPR or GLP-1R were grown to 50% confluency, washed with warm 1×PBS (Gibco) and detached in HEPES/EDTA-buffer (100 mM HEPES pH 7.5, 5 mM EDTA). Cells were harvested by centrifugation at 4° C. and 3000×g and the pellets were stored at −80° C. until further processing.
After thawing on ice, pellets were resuspended in HEPES/EDTA-buffer and homogenized on ice for 1 min using Ultra-Turray T25. After subsequent sonification the cell debris was removed by centrifugation at 1000×g and 4° C. Supernatants were then ultra-centrifuged at 100000×g and 4° C. under vacuum for 30 min. Pellets were resuspended in HEPES/EDTA/NaCl-buffer (20 mM HEPES, 1 mM EDTA, 150 mM NaCl; add 1 Complete Mini Protease inhibitor cocktail to 10 ml buffer) and protein content was determined via BCA-Protein assay.

[4] = ThT assay for the assessment of physical stability; type: physicochemical; details: ThT buffer system A: 100 mM phosphate buffer pH 7.4; 3 mg/ml, 37° C.
Description: Low physical stability of a peptide solution may lead to amyloid fibril formation, which is observed as well-ordered, thread-like macromolecular structures in the sample, which eventually may lead to gel formation. Thioflavin T (ThT) is widely used to visualize and quantify the presence of misfolded protein aggregates [Biancalana et al., Biochim. Biophys. Acta 2010, 1804(7), 1405]. […] Enzymol. 1999, 309, 274]. The time course for fibril formation often follows the characteristic shape of a sigmoidal curve and can be separated into three regions: a lag phase, a fast growth phase, and a plateau phase.
The typical fibril formation process starts with the lag phase in which the amount of partially folded peptide turned into fibrils is not significant enough to be detected. The lag-time corresponds to the time the critical mass of the nucleus is built. Afterwards, a drastic elongation phase follows, and fibril concentration increases rapidly.
Investigations were carried out to determine fibrillation tendencies under stress conditions by shaking at 37° C. within Fluoroskan Ascent FL or Fluoroskan Ascent.
For the tests in Fluoroskan Ascent (FL), 200 μl sample were placed into a 96-well mictrotiter plate PS, flat bottom, Greiner Fluotrac No. 655076. Plates were sealed with Scotch Tape (Qiagen). Samples were stressed by continuous cycles of 10 sec shaking at 960 rpm and 50 sec rest period at 37° C. The kinetic was monitored by measuring fluorescence intensity every 20 min.
Peptides were diluted in a buffer system to a final concentration of 3 mg/ml. 20 μl of a 10.1 mM ThT solution in H2O were added to 2 ml of peptide solution to receive a final concentration of 100 μM ThT. For each sample eight replicates were tested.
ThT buffer system A) 100 mM phosphate buffer pH 7.4
ThT buffer system B) 100 mM phosphate buffer pH 7.4, 2.7 mg/ml m-cresol
Lag time in hours (h) in Thioflavin T (ThT) assay of peptide samples was determined in ThT buffer system A as described in Methods.

Compound: CC[C@H](C)[C@H](NC(=O)[C@H](CCCNC(=N)N)NC(=O)[C@H](CC(=O)O)NC(=O)[C@H](CCCCNC(=O)CNC(=O)CNC(=O)CNC(=O)CC[C@H](NC(=O)CCCCCCCCCCCCCCCCC(=O)O)C(=O)O)NC(=O)C(C)(C)NC(=O)[C@@H](NC(=O)[C@H](CO)NC(=O)[C@H](CC(C)C)NC(=O)[C@H](CC(=O)O)NC(=O)[C@H](CO)NC(=O)[C@@H](NC(=O)[C@H](Cc1ccccc1)NC(=O)[C@@H](NC(=O)CNC(=O)[C@H](CCC(=O)O)NC(=O)C(C)(C)NC(=O)[C@@H](N)Cc1ccc(O)cc1)[C@@H](C)O)[C@@H](C)CC)[C@@H](C)CC)C(=O)N[C@@H](Cc1c[nH]cn1)C(=O)N[C@@H](CCC(N)=O)C(=O)NC(C)(C)C(=O)N[C@@H](CCC(=O)O)C(=O)N[C@@H](Cc1ccccc1)C(=O)N[C@H](C(=O)N[C@@H](CCC(=O)O)C(=O)N[C@@H](Cc1c[nH]c2ccccc12)C(=O)N[C@@H](CC(C)C)C(=O)N[C@@H](CC(C)C)C(=O)N[C@@H](C)C(=O)N[C@@H](CCC(N)=O)C(=O)NCC(=O)N1CCC[C@H]1C(=O)N[C@@H](CO)C(=O)N[C@@H](CO)C(=O)NCC(=O)N[C@@H](C)C(=O)N1CCC[C@H]1C(=O)N1CCC[C@H]1C(=O)N1CCC[C@H]1C(=O)N[C@@H](CO)C(N)=O)[C@@H](C)CC [SEQ ID NO: 5, H2N-Y-Aib-E-G-T-F-I-S-D-I-S-I-Aib-K[{Gly}3-gGlu-C18OH]-D-R-I-H-Q-Aib-E-F-I-E-W-I-L-A-Q-G-P-S-S-G-A-P-P-P-S-NH2] (H-Y[Aib]EGTFISDLSI[Aib]K([Gly-Gly-Gly-γGlu-C18 diacid])DRIHQ[Aib]EFIEWLLAQGPSSGAPPPS-NH2)
- EC50 [1]: > 10 nM
- Relative purity loss over 28 days at 40° C. [2]: 5.8%
- IC50 [3]: 0.1 nM
- Increase in FI [4]: no
- Lag time before increase [4]: >45 h

Compound: CC[C@H](C)[C@H](NC(=O)[C@H](Cc1ccccc1)NC(=O)[C@H](CCC(=O)O)NC(=O)[C@H](CCC(=O)O)NC(=O)[C@H](CCC(N)=O)NC(=O)[C@H](Cc1c[nH]cn1)NC(=O)[C@@H](NC(=O)[C@H](CCCNC(=N)N)NC(=O)[C@H](CC(=O)O)NC(=O)[C@H](CCCCNC(=O)COCCOCCNC(=O)COCCOCCNC(=O)CC[C@H](NC(=O)CCCCCCCCCCCCCCCCCCC(=O)O)C(=O)O)NC(=O)C(C)(C)NC(=O)[C@@H](NC(=O)[C@H](CO)NC(=O)[C@H](CC(C)C)NC(=O)[C@H](CC(=O)O)NC(=O)[C@H](CO)NC(=O)[C@@H](NC(=O)[C@H](Cc1ccccc1)NC(=O)[C@@H](NC(=O)CNC(=O)[C@H](CCC(=O)O)NC(=O)C(C)(C)NC(=O)[C@@H](N)Cc1ccc(O)cc1)[C@@H](C)O)[C@@H](C)CC)[C@@H](C)CC)[C@@H](C)CC)C(=O)N[C@@H](CCC(=O)O)C(=O)N[C@@H](Cc1c[nH]c2ccccc12)C(=O)N[C@@H](CC(C)C)C(=O)N[C@@H](CC(C)C)C(=O)N[C@@H](C)C(=O)N[C@@H](CCC(N)=O)C(=O)NCC(=O)N1CCC[C@H]1C(=O)N[C@@H](CO)C(=O)N[C@@H](CO)C(=O)NCC(=O)N[C@@H](C)C(=O)N1CCC[C@H]1C(=O)N1CCC[C@H]1C(=O)N1CCC[C@H]1C(=O)N[C@@H](CO)C(N)=O [SEQ ID NO: 10, H2N-Y-Aib-E-G-T-F-I-S-D-I-S-I-Aib-K[{AEEA}2-gGlu-C20OH]-DRIHQEEFIEWILAQGPSSGAPPPS-NH2] (H-Y[Aib]EGTFISDLSI[Aib]K([AEEA-AEEA-γGlu-C20 diacid])DRIHQEEFIEWLLAQGPSSGAPPPS-NH2)
- EC50 [1]: > 10 nM
- Relative purity loss over 28 days at 40° C. [2]: 3.3%
- IC50 [3]: 0.3 nM

Compound: CC[C@H](C)[C@H](NC(=O)[C@H](Cc1ccccc1)NC(=O)[C@H](CCC(=O)O)NC(=O)[C@H](CCC(=O)O)NC(=O)[C@H](CCC(N)=O)NC(=O)[C@H](Cc1c[nH]cn1)NC(=O)[C@@H](NC(=O)[C@H](CCCNC(=N)N)NC(=O)[C@H](CC(=O)O)NC(=O)[C@H](CCCCNC(=O)COCCOCCNC(=O)COCCOCCNC(=O)CC[C@H](NC(=O)CCCCCCCCCCCCCCCCC(=O)O)C(=O)O)NC(=O)C(C)(C)NC(=O)[C@@H](NC(=O)[C@H](CO)NC(=O)[C@H](CC(C)C)NC(=O)[C@H](CC(=O)O)NC(=O)[C@H](CO)NC(=O)[C@@H](NC(=O)[C@H](Cc1ccccc1)NC(=O)[C@@H](NC(=O)CNC(=O)[C@H](CCC(=O)O)NC(=O)C(C)(C)NC(=O)[C@@H](N)Cc1ccc(O)cc1)[C@@H](C)O)[C@@H](C)CC)[C@@H](C)CC)[C@@H](C)CC)C(=O)N[C@@H](CCC(=O)O)C(=O)N[C@@H](Cc1c[nH]c2ccccc12)C(=O)N[C@@H](CC(C)C)C(=O)N[C@@H](CC(C)C)C(=O)N[C@@H](C)C(=O)N[C@@H](CCC(N)=O)C(=O)NCC(=O)N1CCC[C@H]1C(=O)N[C@@H](CO)C(=O)N[C@@H](CO)C(=O)NCC(=O)N[C@@H](C)C(=O)N1CCC[C@H]1C(=O)N1CCC[C@H]1C(=O)N1CCC[C@H]1C(=O)N[C@@H](CO)C(=O)O [SEQ ID NO: 11, H2N-Y-Aib-E-G-T-F-I-S-D-I-S-I-Aib-K[{AEEA}2-gGlu-C18OH]-DRIHQEEFIEWILAQGPSSGAPPPS-OH] (H-Y[Aib]EGTFISDLSI[Aib]K([AEEA-AEEA-γGlu-C18 diacid])DRIHQEEFIEWLLAQGPSSGAPPPS-OH)
- EC50 [1]: > 10 nM
- Relative purity loss over 28 days at 40° C. [2]: 6.1%
- IC50 [3]: 0.5 nM
